This passage reports IC50 results from BindingDB's records for doi:10.1016/S0960-894X(01)80832-5 (1994).

The target in experiment [1] is Gastrin/cholecystokinin type B receptor (Cavia porcellus). Kind of experiment: Inhibitory activity against cholecystokinin-B (CCK-B) receptor in cortex of male hartley guinea pig.
For experiment [2] the target is unchanged. The experiment is described as above. The source holds these as a separate data set.

In experiment [1], `Cc1cccc(NC(=O)N[C@@H]2C[C@H](c3ccc(F)cc3)C[C@H](c3ccccc3)N(CC(=O)NC(C)(C)C)C2=O)c1` [N-tert-Butyl-2-[(3R,5S,7R)-5-(4-fluoro-phenyl)-2-oxo-7-phenyl-3-(3-m-tolyl-ureido)-azepan-1-yl]-acetamide] came in with an IC50 of 65 nM.

`Cc1cccc(NC(=O)N[C@@H]2C[C@H](c3ccccc3)C[C@H](c3ccc(F)cc3)N(CC(=O)NC(C)(C)C)C2=O)c1` [N-tert-Butyl-2-[(3R,5S,7R)-7-(4-fluoro-phenyl)-2-oxo-5-phenyl-3-(3-m-tolyl-ureido)-azepan-1-yl]-acetamide]: the concentration for half-maximal inhibition (IC50) in experiment [1] was 203 nM.

In experiment [1], `COc1ccccc1[C@@H]1C[C@H](c2ccccc2)N(CC(=O)NC(C)(C)C)C(=O)[C@H](NC(=O)Nc2cccc(C)c2)C1` [N-tert-Butyl-2-[(3R,5S,7R)-5-(2-methoxy-phenyl)-2-oxo-7-phenyl-3-(3-m-tolyl-ureido)-azepan-1-yl]-acetamide] displayed an IC50 of 28 nM.

`Cc1ccc(NC(=O)CN2C(=O)[C@H](NC(=O)Nc3cccc(C)c3)C[C@H](c3ccccc3C)C[C@@H]2c2ccccc2)cc1` [2-[(3R,5S,7R)-2-Oxo-7-phenyl-5-o-tolyl-3-(3-m-tolyl-ureido)-azepan-1-yl]-N-p-tolyl-acetamide] showed an IC50 in experiment [1] of 40 nM.

The compound `Cc1cccc(NC(=O)N[C@@H]2C[C@H](c3ccccc3)C[C@H](c3cccc(C)c3)N(CC(=O)NC(C)(C)C)C2=O)c1` [N-tert-Butyl-2-[(3R,5S,7R)-2-oxo-5-phenyl-7-m-tolyl-3-(3-m-tolyl-ureido)-azepan-1-yl]-acetamide] showed an IC50 in experiment [1] of 141 nM.

Turning to `Cc1cccc(NC(=O)N[C@@H]2C[C@H](c3ccccc3C)C[C@H](c3ccccc3)N(CC(=O)NC3(C)CCCCC3)C2=O)c1` [N-(1-Methyl-cyclohexyl)-2-[(3R,5S,7R)-2-oxo-7-phenyl-5-o-tolyl-3-(3-m-tolyl-ureido)-azepan-1-yl]-acetamide], 134 nM corresponded to half-maximal inhibition in experiment [1] (IC50).

Take `Cc1ccccc1[C@@H]1C[C@H](c2ccccc2)N(CC(=O)NC(C)(C)C)C(=O)[C@H](NC(=O)Nc2cccc(F)c2)C1` [N-tert-Butyl-2-{(3R,5S,7R)-3-[3-(3-fluoro-phenyl)-ureido]-2-oxo-7-phenyl-5-o-tolyl-azepan-1-yl}-acetamide]: the IC50 in experiment [1] was found to be 36 nM.

Turning to `Cc1cccc(NC(=O)N[C@@H]2C[C@H](c3ccccc3)C[C@H](c3cccc(F)c3)N(CC(=O)NC(C)(C)C)C2=O)c1` [N-tert-Butyl-2-[(3R,5S,7R)-7-(3-fluoro-phenyl)-2-oxo-5-phenyl-3-(3-m-tolyl-ureido)-azepan-1-yl]-acetamide], 31 nM corresponded to half-maximal inhibition in experiment [1] (IC50).

In the case of `Cc1cccc(NC(=O)N[C@@H]2C[C@H](c3ccccc3C)C[C@H](c3ccccc3)N(CC(=O)Nc3ccccc3C)C2=O)c1` [2-[(3R,5S,7R)-2-Oxo-7-phenyl-5-o-tolyl-3-(3-m-tolyl-ureido)-azepan-1-yl]-N-o-tolyl-acetamide], the IC50 in experiment [1] is 71 nM.

Consider `Cc1cccc(NC(=O)N[C@@H]2C[C@H](c3ccccc3C)C[C@H](c3ccccc3)N(CC(=O)Nc3ccccc3Cl)C2=O)c1` [N-(2-Chloro-phenyl)-2-[(3R,5S,7R)-2-oxo-7-phenyl-5-o-tolyl-3-(3-m-tolyl-ureido)-azepan-1-yl]-acetamide], for which the IC50 in experiment [1] came out at 28 nM.

The compound `Cc1ccc([C@@H]2C[C@H](c3ccccc3)N(CC(=O)NC(C)(C)C)C(=O)[C@H](NC(=O)Nc3cccc(C)c3)C2)cc1` [N-tert-Butyl-2-[(3R,5S,7R)-2-oxo-7-phenyl-5-p-tolyl-3-(3-m-tolyl-ureido)-azepan-1-yl]-acetamide] returned an IC50 in experiment [1] of 190 nM. Compared with the last compound, the IC50 is about 6.8-fold higher.

With `Cc1ccccc1[C@@H]1C[C@H](c2ccccc2)N(CC(=O)NC(C)(C)C)C(=O)[C@H](NC(=O)Nc2ccc(Cl)cc2)C1` [N-tert-Butyl-2-{(3R,5S,7R)-3-[3-(4-chloro-phenyl)-ureido]-2-oxo-7-phenyl-5-o-tolyl-azepan-1-yl}-acetamide], in experiment [1], the IC50 was 117 nM. Against the preceding compound, the IC50 is about 1.6-fold lower.

`CCc1ccccc1[C@@H]1C[C@H](c2ccccc2)N(CC(=O)NC(C)(C)C)C(=O)[C@H](NC(=O)Nc2cccc(C)c2)C1` [N-tert-Butyl-2-[(3R,5S,7R)-5-(2-ethyl-phenyl)-2-oxo-7-phenyl-3-(3-m-tolyl-ureido)-azepan-1-yl]-acetamide] returned an IC50 in experiment [1] of 25 nM.

`Cc1cccc(NC(=O)N[C@@H]2C[C@H](c3ccccc3C)C[C@H](c3ccccc3)N(CC(=O)NC(C)(C)C)C2=O)c1` [N-tert-Butyl-2-[(3R,5S,7R)-2-oxo-7-phenyl-5-o-tolyl-3-(3-m-tolyl-ureido)-azepan-1-yl]-acetamide]: the IC50 in experiment [1] turned out to be 7.8 nM; in experiment [2], 527 nM.

Consider `COc1ccc(NC(=O)N[C@@H]2C[C@H](c3ccccc3C)C[C@H](c3ccccc3)N(CC(=O)NC(C)(C)C)C2=O)cc1` [N-tert-Butyl-2-{(3R,5S,7R)-3-[3-(4-methoxy-phenyl)-ureido]-2-oxo-7-phenyl-5-o-tolyl-azepan-1-yl}-acetamide], for which the midpoint of inhibition in experiment [1], the IC50, lay at 87 nM.

With `Cc1ccccc1[C@@H]1C[C@H](c2ccccc2)N(CC(=O)NC(C)(C)C)C(=O)[C@H](NC(=O)Nc2cccc([N+](=O)[O-])c2)C1` [N-tert-Butyl-2-{(3R,5S,7R)-3-[3-(3-nitro-phenyl)-ureido]-2-oxo-7-phenyl-5-o-tolyl-azepan-1-yl}-acetamide], the IC50 in experiment [1] was found to be 10 nM.

As to `Cc1cccc(NC(=O)N[C@@H]2C[C@H](c3ccccc3C)C[C@H](c3ccccc3)N(CC(=O)NC(C(C)(C)C)C(C)(C)C)C2=O)c1` [N-(1-tert-Butyl-2,2-dimethyl-propyl)-2-[(3R,5S,7R)-2-oxo-7-phenyl-5-o-tolyl-3-(3-m-tolyl-ureido)-azepan-1-yl]-acetamide], in experiment [1], half-maximal inhibition (IC50) required 453 nM.

The compound `Cc1ccccc1[C@@H]1C[C@H](c2ccccc2)N(CC(=O)NC(C)(C)C)C(=O)[C@H](NC(=O)Nc2cccc(C(F)(F)F)c2)C1` [N-tert-Butyl-2-{(3R,5S,7R)-2-oxo-7-phenyl-5-o-tolyl-3-[3-(3-trifluoromethyl-phenyl)-ureido]-azepan-1-yl}-acetamide] displayed an IC50 in experiment [1] of 28 nM.

As for `Cc1ccc([C@H]2C[C@@H](c3ccccc3)C[C@@H](NC(=O)Nc3cccc(C)c3)C(=O)N2CC(=O)NC(C)(C)C)cc1` [N-tert-Butyl-2-[(3R,5S,7R)-2-oxo-5-phenyl-7-p-tolyl-3-(3-m-tolyl-ureido)-azepan-1-yl]-acetamide], it took 560 nM to reach half-maximal inhibition in experiment [1] (IC50).

The compound `CCc1cccc(NC(=O)N[C@@H]2C[C@H](c3ccccc3C)C[C@H](c3ccccc3)N(CC(=O)NC3(C)CCCCC3)C2=O)c1` [2-{(3R,5S,7R)-3-[3-(3-Ethyl-phenyl)-ureido]-2-oxo-7-phenyl-5-o-tolyl-azepan-1-yl}-N-(1-methyl-cyclohexyl)-acetamide] came in with an IC50 in experiment [1] of 38 nM.
